Measurements from article PMC4864350, “Fluorogenic Substrates for In Situ Monitoring of Caspase-3 Activity in Live Cells” (PLoS ONE, 2016).
*: point of attachment. MethylRed = CN(C)c1ccc(/N=N/c2ccccc2C(=O)*)cc1; FAM = 5(6)-carboxyfluorescein; peptoid = not defined here; Ahx = NCCCCCC(=O)O

Tested on: HEK293T cells
Experiment: Flow cytometry detection of caspase-3 activity in live cells
Type: cell-based
Settings: 27 at 10 μM, 5 h
Description: Fig 4 Flow cytometry analysis of healthy and apoptotic HEK293T cells treated with substrate 27. The cells were incubated 5 h with fluorogenic substrate 27 (10 μM), detached, and analysed by flow cytometry (λEx/Em 488/530 nm, x-axis = fluorescence intensity). (A) Healthy, non-apoptotic cells. (B) Apoptotic cells (induced by 1 μM staurosporine). TEXT PRINTED IN THE PICTURE: (A) no label printed: FITC - 92.7%; FITC + 7.28% | (B) no label printed: FITC - 1.57%; FITC + 98.4% […]
Cell culture was performed in a Heracell 150 incubator (Heraeus) and in a Herasafe KS 18 class II negative-flow cabinet (Heraeus). HEK293T and MCF-7 cells (cultured in high glucose (4.5 mg/mL) DMEM supplemented with 4 mM glutamine, 100 units/mL penicillin, 10 mg/mL streptomycin and 25 mg/mL amphotericin B, and 10% FBS) were seeded onto a 48-well plate at a density of 10^4 cells per well. After 12 hours, the media was removed and substrates 1–14 added at 10 μM in fresh media. Selected wells were also treated with staurosporine (1 μM). After 5 hours, the cells were washed twice with PBS, detached with trypsin/EDTA, harvested with 2% FBS in PBS supplemented with Trypan Blue (0.04%) for analysis on a BD FACSAria® flow cytometer. Fluorescence was evaluated as mean fluorescence intensity (MFI) and estimated <100 u.a. for untreated control cells (consistent values independently of staurosporine addition). Apoptotic cells treated with substrate 1 were used as a positive control to obtain the maximum of fluorescence signal. 50,000 events per sample were plotted in two-dimensional dot plots based on forward and side scattering. The cellular size and complexity (SSC-H vs. FSC-H) were used to gate two populations (alive/apoptotic cells) (debri excluded). The data were analysed using the software Flowjo® 7.5.
Quantification of caspase-3 in apoptotic cells by flow cytometry
Localisation of apoptotic cells by flow cytometry. Flow cytometry analysis of morphology (SSC-A) and size (FSC-A) of HEK293T cells without (left image) and with (right image) treatment with 1 µM staurosporine for 4 h.
Calculation of active caspase-3 concentration inside cells
Substrate 27 was used to quantify caspase-3 per cell.1
1. Calculate FAM-Ahx-Leu-Pro-Asp released per cell:
Fluorescein-labelled microspheres (0.5% SC, ≈ 2 mmol/g),2 were used to generate the standard curve for fluorescence intensity versus amount of the fluorophore (nmol) by flow cytometry (see below).
Kossler, S.; Nofziger, C.; Jakab, M.; Dossena, S.; Paulmichl, M. Toxicology, 2012, 292, 123-135.
2 a) A. uncit-Broceta, E.M.V. Johansson, R.M. Yusop, R.M. Sanchez-Martin and M. Bradley, Nat.
Protocol, 2012, 7, 1207-1218. b) J.M. Cardenas-Maestre and R.M. Sanchez-Martin, Org. Biomol. Chem., […]
(1 picture or pasted object on this page, not shown here)
FAM standard curve to determine conversion factor (7x109 MFI/nmol) representing FI (Fluorescence Intensity) versus FAM quantity (nmol).
To determine the concentration of FAM-Ahx-Leu-Pro-Asp released per cell (nmol/cell) = [FI/cell – FI0/cell]/7x109 FI/nmol
Assuming 20 µm cell diameter and 2/3 of that for the nucleus, the cytoplasmic volume of HEK293T cell is 3 pl (VC).1,3
FAM-Ahx-Leu-Pro-Asp released per cell (M) = FAM-Ahx-Leu-Pro-Asp released per […]
2. Calculate the rate of product formation V0 with 5 h staurosporine treatment:
V0 = d[P]/dt = FAM-Ahx-Leu-Pro-Asp released per cell (mM)/18000 sec
3. Quantify the concentration of the enzyme per cell at high substrate concentrations (enzyme saturation) […]
kcat = 0.04 s-1 (sensor 27 DLPDK)
[E] = enzyme concentration per cell (nM)
[Caspase-3] = 15.65 ± 0.46 nM (1.3 ng active caspase 3 per 106 apoptotic staurosporine- […]
3 Y. Liu, X. Yan and T. Zhou, PLOS one, 2013, 8, 8.
4. Quantify the number of molecules per cell of caspase-3
NoE (number of enzyme molecules per cell) = [E]xVCxNA […]

[1] = apoptosis induced by 1 μM staurosporine (Fig 4B)

Substance: substrate 27: FAM-Ahx-Asp-Leu-Pro-Asp-Lys(MR)-Ahx, conjugated to the cell penetrating peptoid at the C-terminus ({FAM-Ahx}-DLPDK(MethylRed)-{Ahx-peptoid}; reading uncertain; also: printed as FAM-Ahx-Asp-Leu-Pro-Asp-Lys(MR)-Ahx)
- FITC + cells, apoptotic [1]: 98.4%
- FITC - cells, apoptotic [1]: 1.57%
- increase in fluorescence without staurosporine (no staurosporine, flow cytometry): no increase observed
- FITC + cells, healthy (non-apoptotic cells (Fig 4A)): 7.28%
- FITC - cells, healthy (non-apoptotic cells (Fig 4A)): 92.7%
- increase in the fluorescence intensity of the cells after apoptotic stimulation (staurosporine 1 μM, flow cytometry λEx/Em 488/530 nm): 2.5 fold
